From the supplement of paper PMC13380429

Key:
Details in all cases: 72 h
Vero E6 [1] = test: cell viability relative to DMSO; higher = less toxic
HepG2 [2] = test: as above
Caco-2 [3] = test: as above
Calu-3 [4] = test: as above
U2OS [5] = test: as above
Vero E6 [6] = test: drug sensitivity score (DSS) for viability; higher = more toxic; extreme values may be limits of the assay
HepG2 [7] = test: as above
Caco-2 [8] = test: as above
Calu-3 [9] = test: as above
U2OS [10] = test: as above
Vero E6 [11] = test: relative viability EC50 (midpoint between 100% and the lowest measured viability); higher = less toxic
HepG2 [12] = test: as above
Calu-3 [13] = test: as above
U2OS [14] = test: as above
Caco-2 [15] = test: as above

For `Oc1ccc(C2CNCCc3c2cc(O)c(O)c3Cl)cc1` (stereo not drawn) [fenoldopam], the cell viability (Vero E6 [1]; 1 nM) was 101%, the cell viability (Vero E6 [1]; 10 nM) was 99.4% and the cell viability (Vero E6 [1]; 100 nM) was 97.3%. For the same compound, the cell viability (Vero E6 [1]; 1000 nM) was 103%, the cell viability (Vero E6 [1]; 10000 nM) was 96.7% and the cell viability (HepG2 [2]; 1 nM) was 104%. For the same compound, the cell viability (HepG2 [2]; 10 nM) was 102%, the cell viability (HepG2 [2]; 100 nM) was 95.3% and the cell viability (HepG2 [2]; 1000 nM) was 105%. It also gave a cell viability (HepG2 [2]; 10000 nM) of 94.8%, a cell viability (Caco-2 [3]; 1 nM) of 96% and a cell viability (Caco-2 [3]; 10 nM) of 87%. For the same compound, the cell viability (Caco-2 [3]; 100 nM) was 80.6%, the cell viability (Caco-2 [3]; 1000 nM) was 76.6% and the cell viability (Caco-2 [3]; 10000 nM) was 73.7%. It also gave a cell viability (Calu-3 [4]; 1 nM) of 96.5%, a cell viability (Calu-3 [4]; 10 nM) of 110% and a cell viability (Calu-3 [4]; 100 nM) of 105%. The cell viability (Calu-3 [4]; 1000 nM) was 109%, the cell viability (Calu-3 [4]; 10000 nM) was 107% and the cell viability (U2OS [5]; 1 nM) was 103%. It also gave a cell viability (U2OS [5]; 10 nM) of 101%, a cell viability (U2OS [5]; 100 nM) of 99.1% and a cell viability (U2OS [5]; 1000 nM) of 102%. The cell viability (U2OS [5]; 10000 nM) was 103%, the drug sensitivity score (Vero E6 [6]) was 0 and the drug sensitivity score (HepG2 [7]) was 0. It also gave a drug sensitivity score (Caco-2 [8]) of 6.6, a drug sensitivity score (Calu-3 [9]) of 0 and a drug sensitivity score (U2OS [10]) of 0. The “relative viability EC50” value (Vero E6 [11]) was > 10 µM, the “relative viability EC50” value (HepG2 [12]) was > 10 µM and the “relative viability EC50” value (Calu-3 [13]) was > 10 µM. The “relative viability EC50” value (U2OS [14]) was > 10 µM.

`O=C1O[C@H](CO)[C@@H](O)[C@H](O)[C@H]1O` [gluconolactone] was tested, and the cell viability (HepG2 [2]; 1 nM) was 90.9%, the cell viability (HepG2 [2]; 10 nM) was 103% and the cell viability (HepG2 [2]; 100 nM) was 92.2%. It also gave a cell viability (HepG2 [2]; 1000 nM) of 91.2%, a cell viability (HepG2 [2]; 10000 nM) of 94.5% and a cell viability (Caco-2 [3]; 1 nM) of 109%. The cell viability (Caco-2 [3]; 10 nM) was 106%, the cell viability (Caco-2 [3]; 100 nM) was 102% and the cell viability (Caco-2 [3]; 1000 nM) was 95.1%. The cell viability (Caco-2 [3]; 10000 nM) was 101%, the cell viability (Calu-3 [4]; 1 nM) was 99.6% and the cell viability (Calu-3 [4]; 10 nM) was 90.5%. For the same compound, the cell viability (Calu-3 [4]; 100 nM) was 100%, the cell viability (Calu-3 [4]; 1000 nM) was 97.2% and the cell viability (Calu-3 [4]; 10000 nM) was 105%. The cell viability (U2OS [5]; 1 nM) was 106%, the cell viability (U2OS [5]; 10 nM) was 102% and the cell viability (U2OS [5]; 100 nM) was 104%. The cell viability (U2OS [5]; 1000 nM) was 98.9%, the cell viability (U2OS [5]; 10000 nM) was 106% and the drug sensitivity score (HepG2 [7]) was 0. It also gave a drug sensitivity score (Caco-2 [8]) of 0, a drug sensitivity score (Calu-3 [9]) of 0 and a drug sensitivity score (U2OS [10]) of 0. For the same compound, the “relative viability EC50” value (HepG2 [12]) was > 10 µM, the “relative viability EC50” value (Caco-2 [15]) was > 10 µM and the “relative viability EC50” value (Calu-3 [13]) was > 10 µM. For the same compound, the “relative viability EC50” value (U2OS [14]) was > 10 µM.

`O=C(NCNC(=O)NC1C(=O)NC(=O)N1CO)NC1C(=O)NC(=O)N1CO` (stereo not drawn) [imidurea] was tested, and the cell viability (HepG2 [2]; 1 nM) was 104%, the cell viability (HepG2 [2]; 10 nM) was 97.3% and the cell viability (HepG2 [2]; 100 nM) was 89.8%. The cell viability (HepG2 [2]; 1000 nM) was 98.1%, the cell viability (HepG2 [2]; 10000 nM) was 82.9% and the cell viability (Caco-2 [3]; 1 nM) was 90.7%. It also gave a cell viability (Caco-2 [3]; 10 nM) of 95.4%, a cell viability (Caco-2 [3]; 100 nM) of 98.7% and a cell viability (Caco-2 [3]; 1000 nM) of 98%. It also gave a cell viability (Caco-2 [3]; 10000 nM) of 103%, a cell viability (Calu-3 [4]; 1 nM) of 94.4% and a cell viability (Calu-3 [4]; 10 nM) of 98.1%. It also gave a cell viability (Calu-3 [4]; 100 nM) of 104%, a cell viability (Calu-3 [4]; 1000 nM) of 103% and a cell viability (Calu-3 [4]; 10000 nM) of 95.6%. It also gave a cell viability (U2OS [5]; 1 nM) of 103%, a cell viability (U2OS [5]; 10 nM) of 97.3% and a cell viability (U2OS [5]; 100 nM) of 102%. It also gave a cell viability (U2OS [5]; 1000 nM) of 98.3%, a cell viability (U2OS [5]; 10000 nM) of 102% and a drug sensitivity score (HepG2 [7]) of 0.3. For the same compound, the drug sensitivity score (Caco-2 [8]) was 0, the drug sensitivity score (Calu-3 [9]) was 0 and the drug sensitivity score (U2OS [10]) was 0. The “relative viability EC50” value (HepG2 [12]) was > 10 µM, the “relative viability EC50” value (Caco-2 [15]) was > 10 µM and the “relative viability EC50” value (Calu-3 [13]) was > 10 µM. For the same compound, the “relative viability EC50” value (U2OS [14]) was > 10 µM.

Work on `O=C(Nc1ccncc1)C(=O)c1cn(Cc2ccc(Cl)cc2)c2ccccc12` [indibulin] yielded a cell viability (Vero E6 [1]; 1 nM) of 75.1%, a cell viability (Vero E6 [1]; 10 nM) of 104% and a cell viability (Vero E6 [1]; 100 nM) of 79.4%. For the same compound, the cell viability (Vero E6 [1]; 1000 nM) was 97.3%, the cell viability (Vero E6 [1]; 10000 nM) was 66.1% and the cell viability (HepG2 [2]; 1 nM) was 91.6%. The cell viability (HepG2 [2]; 10 nM) was 107%, the cell viability (HepG2 [2]; 100 nM) was 94.9% and the cell viability (HepG2 [2]; 1000 nM) was 91.3%. It also gave a cell viability (HepG2 [2]; 10000 nM) of 94.5%, a cell viability (Caco-2 [3]; 1 nM) of 75% and a cell viability (Caco-2 [3]; 10 nM) of 84%. For the same compound, the cell viability (Caco-2 [3]; 100 nM) was 94.9%, the cell viability (Caco-2 [3]; 1000 nM) was 82.9% and the cell viability (Caco-2 [3]; 10000 nM) was 92.2%. The cell viability (Calu-3 [4]; 1 nM) was 97.9%, the cell viability (Calu-3 [4]; 10 nM) was 95% and the cell viability (Calu-3 [4]; 100 nM) was 110%. For the same compound, the cell viability (Calu-3 [4]; 1000 nM) was 102%, the cell viability (Calu-3 [4]; 10000 nM) was 104% and the cell viability (U2OS [5]; 1 nM) was 111%. The cell viability (U2OS [5]; 10 nM) was 99%, the cell viability (U2OS [5]; 100 nM) was 97.2% and the cell viability (U2OS [5]; 1000 nM) was 95.4%. The cell viability (U2OS [5]; 10000 nM) was 90.9%, the drug sensitivity score (Vero E6 [6]) was 2 and the drug sensitivity score (HepG2 [7]) was 0. It also gave a drug sensitivity score (Caco-2 [8]) of 0, a drug sensitivity score (Calu-3 [9]) of 0 and a drug sensitivity score (U2OS [10]) of 0. The “relative viability EC50” value (HepG2 [12]) was > 10 µM, the “relative viability EC50” value (Caco-2 [15]) was > 10 µM and the “relative viability EC50” value (Calu-3 [13]) was > 10 µM. The “relative viability EC50” value (U2OS [14]) was > 10 µM.

`CCCCC(F)(F)[C@@]1(O)CC[C@H]2[C@@H](CC(=O)[C@@H]2CCCCCCC(=O)O)O1` [lubiprostone] was tested, and the cell viability (Caco-2 [3]; 1 nM) was 108%, the cell viability (Caco-2 [3]; 10 nM) was 101% and the cell viability (Caco-2 [3]; 100 nM) was 101%. For the same compound, the cell viability (Caco-2 [3]; 1000 nM) was 103%, the cell viability (Caco-2 [3]; 10000 nM) was 97.8% and the cell viability (Calu-3 [4]; 1 nM) was 106%. It also gave a cell viability (Calu-3 [4]; 10 nM) of 102%, a cell viability (Calu-3 [4]; 100 nM) of 111% and a cell viability (Calu-3 [4]; 1000 nM) of 98.6%. The cell viability (Calu-3 [4]; 10000 nM) was 98.8%, the cell viability (U2OS [5]; 1 nM) was 104% and the cell viability (U2OS [5]; 10 nM) was 102%. It also gave a cell viability (U2OS [5]; 100 nM) of 104%, a cell viability (U2OS [5]; 1000 nM) of 99.8% and a cell viability (U2OS [5]; 10000 nM) of 104%. It also gave a drug sensitivity score (Caco-2 [8]) of 0, a drug sensitivity score (Calu-3 [9]) of 0 and a drug sensitivity score (U2OS [10]) of 0. The “relative viability EC50” value (Caco-2 [15]) was > 10 µM, the “relative viability EC50” value (Calu-3 [13]) was > 10 µM and the “relative viability EC50” value (U2OS [14]) was > 10 µM.

In the case of `COC(=O)C1=C(C)NC(C)=C(C(=O)OCCN2CCN(C(c3ccccc3)c3ccccc3)CC2)C1c1cccc([N+](=O)[O-])c1` (stereo not drawn) [manidipine], the cell viability (Vero E6 [1]; 1 nM) is reported as 100%, the cell viability (Vero E6 [1]; 10 nM) is reported as 103% and the cell viability (Vero E6 [1]; 100 nM) is reported as 96.7%. The cell viability (Vero E6 [1]; 1000 nM) was 100%, the cell viability (Vero E6 [1]; 10000 nM) was 93.3% and the cell viability (HepG2 [2]; 1 nM) was 105%. For the same compound, the cell viability (HepG2 [2]; 10 nM) was 104%, the cell viability (HepG2 [2]; 100 nM) was 104% and the cell viability (HepG2 [2]; 1000 nM) was 104%. It also gave a cell viability (HepG2 [2]; 10000 nM) of 81.4%, a cell viability (Caco-2 [3]; 1 nM) of 98.4% and a cell viability (Caco-2 [3]; 10 nM) of 93.9%. The cell viability (Caco-2 [3]; 100 nM) was 104%, the cell viability (Caco-2 [3]; 1000 nM) was 94.5% and the cell viability (Caco-2 [3]; 10000 nM) was 65.4%. It also gave a cell viability (Calu-3 [4]; 1 nM) of 94.6%, a cell viability (Calu-3 [4]; 10 nM) of 103% and a cell viability (Calu-3 [4]; 100 nM) of 104%. For the same compound, the cell viability (Calu-3 [4]; 1000 nM) was 91.5%, the cell viability (Calu-3 [4]; 10000 nM) was 85.4% and the cell viability (U2OS [5]; 1 nM) was 98.3%. The cell viability (U2OS [5]; 10 nM) was 100%, the cell viability (U2OS [5]; 100 nM) was 93.8% and the cell viability (U2OS [5]; 1000 nM) was 97.6%. For the same compound, the cell viability (U2OS [5]; 10000 nM) was 71.9%, the drug sensitivity score (Vero E6 [6]) was 0 and the drug sensitivity score (HepG2 [7]) was 0.3. The drug sensitivity score (Caco-2 [8]) was 2.5, the drug sensitivity score (Calu-3 [9]) was 0.8 and the drug sensitivity score (U2OS [10]) was 1.5. For the same compound, the “relative viability EC50” value (Vero E6 [11]) was > 10 µM, the “relative viability EC50” value (HepG2 [12]) was > 10 µM and the “relative viability EC50” value (Calu-3 [13]) was > 10 µM.
